The results in this text go back to ChEMBL document CHEMBL4725368, “Novel C-7 carbon substituted fourth generation fluoroquinolones targeting N. Gonorrhoeae infections” (Bioorg Med Chem Lett, 2020).

The logD is the decadic logarithm of the distribution of all forms, ionised or not, between an organic phase and buffer at a given pH. Low readings indicate a more hydrophilic compound, high ones a more lipophilic compound. By fraction unbound is commonly meant free concentration divided by total concentration. Lower therefore signals little free substance. What is called MIC is the least concentration at which growth counts as inhibited. As a reminder, the IC50 is the point on the concentration scale where inhibition reaches its midpoint. The low end stands for inhibition by little substance, the high end for a need for much substance. For orientation: pKa means the negative logarithm of the acid dissociation constant. Low values mean a stronger acid or weaker base, high ones a weaker acid or stronger base. One may read the kinetic solubility as the concentration staying in solution when a stock, usually in DMSO, is diluted into the medium. As usually defined, the inhibition is the share of the control response that was lost under treatment. Low readings indicate a response near the control, high ones a response far below the control. In general, bioavailability refers to the share of a dose that reaches the circulation, judged against a reference dose that is usually intravenous. Low values mean little systemic uptake, high ones much systemic uptake. What is called MIC90 is an inhibitory concentration at the 90% level, which refers to growth in some studies and to a panel of isolates in others.

Data set [1] is described as follows: physchem. To be noted: octanol/water, pH 7.4.
Description: Distribution coefficient, logD of the compound at pH 7.4
A short description of data set [2]: in vitro. As to conditions: human, plasma; call rule not given here.
Data set [3] relates to Neisseria gonorrhoeae. Description: Antibacterial activity against fluoroquinolone-resistant Neisseria gonorrhoeae WHO L harboring multiple point mutations at DNA gyrase and topoisomerase IV and porB1b mutation assessed as reduction in bacterial growth by CLSI protocol based microdilution method. It counts as functional. For orientation: Broth dilution looks for growth in wells or tubes with falling amounts of substance.

Data set [4] deals with Cytochrome P450 2D6 (Homo sapiens, UniProt P10635).
Cytochrome P450 2D6, sequence (P10635 whole entry): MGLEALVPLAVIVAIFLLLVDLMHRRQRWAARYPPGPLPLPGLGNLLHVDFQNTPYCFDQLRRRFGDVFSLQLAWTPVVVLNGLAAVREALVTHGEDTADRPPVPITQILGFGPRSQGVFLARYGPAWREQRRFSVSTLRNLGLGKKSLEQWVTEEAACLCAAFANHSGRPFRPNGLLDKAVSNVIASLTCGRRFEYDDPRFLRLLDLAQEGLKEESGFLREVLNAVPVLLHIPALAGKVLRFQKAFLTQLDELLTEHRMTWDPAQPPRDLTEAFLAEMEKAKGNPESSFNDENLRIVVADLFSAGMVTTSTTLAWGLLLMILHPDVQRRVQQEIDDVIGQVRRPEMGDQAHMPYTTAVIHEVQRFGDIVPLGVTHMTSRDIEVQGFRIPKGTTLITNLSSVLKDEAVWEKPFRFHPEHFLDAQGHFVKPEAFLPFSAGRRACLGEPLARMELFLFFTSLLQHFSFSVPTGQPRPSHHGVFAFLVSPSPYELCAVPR
Description: Inhibition of CYP2D6 (unknown origin)
Data set [5] concerns Klebsiella pneumoniae. Description: Antibacterial activity against Klebsiella pneumoniae ATCC 700603 assessed as reduction in bacterial growth by CLSI protocol based microdilution method. The data set is classed as functional.
Data set [6] has as its target Cytochrome P450 2C9 (Homo sapiens, UniProt P11712).
Description: Inhibition of CYP2C9 (unknown origin)
Data set [7] concerns Staphylococcus aureus. Description: Antibacterial activity against Staphylococcus aureus ATCC 29213 assessed as reduction in bacterial growth by CLSI protocol based microdilution method. It counts as functional.
The nature of data set [8]: Acid dissociation constant, pKa of the compound. It counts as physicochemical.
Data set [9] has as its system Escherichia coli. Description: Antibacterial activity against Escherichia coli ATCC 25922 assessed as reduction in bacterial growth by CLSI protocol based microdilution method. The data set is classed as functional.
The nature of data set [10]: physchem.
Description: Kinetic solubility of the compound
The nature of data set [11]: Intrinsic clearance in human hepatocytes assessed per 10^6 cells. The data set is classed as ADME, cell-based, Hepatocyte. To be noted: read-out: CLH.
Data set [12] is described as follows: Intrinsic clearance in human liver microsomes. It counts as ADME, Microsome. As to conditions: read-out: CLH. (In general: Liver microsomes are vesicles of endoplasmic reticulum, rich in cytochrome P450 enzymes.)
For data set [13], the target named is Cytochrome P450 2C19 (Homo sapiens, UniProt P33261).
Cytochrome P450 2C19, sequence (P33261 whole entry): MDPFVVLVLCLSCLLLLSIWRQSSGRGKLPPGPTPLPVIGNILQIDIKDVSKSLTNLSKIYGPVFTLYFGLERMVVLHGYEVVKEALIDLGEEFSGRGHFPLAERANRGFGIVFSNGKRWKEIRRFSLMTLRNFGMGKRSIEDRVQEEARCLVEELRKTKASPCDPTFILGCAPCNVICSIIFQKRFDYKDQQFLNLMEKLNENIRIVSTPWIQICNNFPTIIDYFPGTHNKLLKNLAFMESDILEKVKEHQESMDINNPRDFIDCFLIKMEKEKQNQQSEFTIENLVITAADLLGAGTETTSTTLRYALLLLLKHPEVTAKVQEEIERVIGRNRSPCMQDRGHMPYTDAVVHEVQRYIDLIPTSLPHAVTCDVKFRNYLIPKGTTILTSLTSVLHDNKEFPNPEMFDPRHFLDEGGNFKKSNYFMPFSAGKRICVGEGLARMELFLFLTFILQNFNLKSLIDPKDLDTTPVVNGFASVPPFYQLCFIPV
Description: Inhibition of CYP2C19 (unknown origin)
In data set [14] the target is Cytochrome P450 3A4 (Homo sapiens, UniProt P08684).
Cytochrome P450 3A4, sequence (P08684 whole entry): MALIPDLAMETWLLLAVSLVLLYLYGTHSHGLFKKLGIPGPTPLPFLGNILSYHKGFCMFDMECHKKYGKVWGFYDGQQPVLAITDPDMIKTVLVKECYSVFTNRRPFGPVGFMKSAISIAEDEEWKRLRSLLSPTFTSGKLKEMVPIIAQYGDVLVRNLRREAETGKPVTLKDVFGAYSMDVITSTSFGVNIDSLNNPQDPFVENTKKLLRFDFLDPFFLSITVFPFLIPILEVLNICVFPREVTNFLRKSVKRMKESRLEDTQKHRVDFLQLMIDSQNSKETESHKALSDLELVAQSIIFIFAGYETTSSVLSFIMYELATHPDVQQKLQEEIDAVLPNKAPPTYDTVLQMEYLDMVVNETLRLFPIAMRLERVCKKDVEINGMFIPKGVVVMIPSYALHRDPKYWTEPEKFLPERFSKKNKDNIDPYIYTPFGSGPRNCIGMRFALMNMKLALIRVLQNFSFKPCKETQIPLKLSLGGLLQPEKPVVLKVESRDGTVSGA
Description: Inhibition of CYP3A4 (unknown origin)
Data set [15] has as its system Acinetobacter baumannii. Description: Antibacterial activity against Acinetobacter baumannii ATCC 19606 assessed as reduction in bacterial growth by CLSI protocol based microdilution method. It counts as functional. As to conditions: ATCC 19606 = CIP 70.34 = JCM 6841.
The subject of data set [16] is Enterococcus faecalis. Description: Antibacterial activity against Enterococcus faecalis ATCC 29212 assessed as reduction in bacterial growth by CLSI protocol based microdilution method. It counts as functional.
Data set [17] deals with T1, hERG (KCNH2) (Homo sapiens, UniProt Q12809). Description: Inhibition of human ERG at 100 uM relative to control.
T1 sequence (Q12809 whole entry): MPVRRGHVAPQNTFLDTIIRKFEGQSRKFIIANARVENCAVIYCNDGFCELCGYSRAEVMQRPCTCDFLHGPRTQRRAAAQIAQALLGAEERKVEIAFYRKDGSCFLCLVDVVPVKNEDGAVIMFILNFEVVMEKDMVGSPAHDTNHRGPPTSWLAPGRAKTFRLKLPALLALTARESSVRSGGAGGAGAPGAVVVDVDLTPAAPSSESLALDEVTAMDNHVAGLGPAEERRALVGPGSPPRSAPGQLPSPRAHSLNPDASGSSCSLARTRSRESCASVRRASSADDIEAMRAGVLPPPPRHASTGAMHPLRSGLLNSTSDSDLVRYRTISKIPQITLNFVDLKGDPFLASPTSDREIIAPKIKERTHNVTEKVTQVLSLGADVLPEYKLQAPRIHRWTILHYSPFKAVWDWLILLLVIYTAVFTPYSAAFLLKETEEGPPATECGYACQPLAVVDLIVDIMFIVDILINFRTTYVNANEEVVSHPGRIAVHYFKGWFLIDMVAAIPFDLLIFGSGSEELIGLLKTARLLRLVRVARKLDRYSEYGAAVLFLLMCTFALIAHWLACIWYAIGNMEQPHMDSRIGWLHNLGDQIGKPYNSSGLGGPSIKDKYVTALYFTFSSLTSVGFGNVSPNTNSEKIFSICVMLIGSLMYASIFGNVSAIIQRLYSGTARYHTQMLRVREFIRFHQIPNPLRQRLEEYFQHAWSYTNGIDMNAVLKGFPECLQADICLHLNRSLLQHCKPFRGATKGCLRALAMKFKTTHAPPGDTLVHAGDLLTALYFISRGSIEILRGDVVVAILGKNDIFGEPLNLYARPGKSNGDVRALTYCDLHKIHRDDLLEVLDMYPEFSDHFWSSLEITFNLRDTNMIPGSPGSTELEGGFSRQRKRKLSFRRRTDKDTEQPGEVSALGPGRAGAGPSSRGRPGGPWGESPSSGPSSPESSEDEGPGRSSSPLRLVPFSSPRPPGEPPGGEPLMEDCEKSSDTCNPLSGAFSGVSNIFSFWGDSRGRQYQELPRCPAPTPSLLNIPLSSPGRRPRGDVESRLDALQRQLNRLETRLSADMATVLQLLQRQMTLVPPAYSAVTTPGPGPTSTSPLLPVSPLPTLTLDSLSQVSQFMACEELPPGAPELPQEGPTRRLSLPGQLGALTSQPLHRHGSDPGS
The subject of data set [18] is Neisseria gonorrhoeae. Description: Antibacterial activity against Neisseria gonorrhoeae ATCC 49226 assessed as reduction in bacterial growth by CLSI protocol based microdilution method. It counts as functional.
For data set [19], the target named is T2, Cytochrome P450 1A2 (Homo sapiens, UniProt P05177).
T2 sequence (P05177 whole entry): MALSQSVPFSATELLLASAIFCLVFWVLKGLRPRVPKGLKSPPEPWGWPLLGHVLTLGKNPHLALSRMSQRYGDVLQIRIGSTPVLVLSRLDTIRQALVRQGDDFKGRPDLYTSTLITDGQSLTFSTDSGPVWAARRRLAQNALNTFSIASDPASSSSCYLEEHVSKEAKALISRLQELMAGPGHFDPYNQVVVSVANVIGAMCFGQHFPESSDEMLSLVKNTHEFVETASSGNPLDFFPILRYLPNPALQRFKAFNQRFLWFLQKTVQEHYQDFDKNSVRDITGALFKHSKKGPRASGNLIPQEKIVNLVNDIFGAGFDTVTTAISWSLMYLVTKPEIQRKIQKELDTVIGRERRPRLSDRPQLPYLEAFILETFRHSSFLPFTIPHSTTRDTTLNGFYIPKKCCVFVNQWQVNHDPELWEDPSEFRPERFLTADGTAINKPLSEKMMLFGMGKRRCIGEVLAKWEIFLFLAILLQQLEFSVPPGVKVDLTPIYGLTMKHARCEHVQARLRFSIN
Description: Inhibition of CYP1A2 (unknown origin)

Data set [20] relates to Pseudomonas aeruginosa. Description: Antibacterial activity against Pseudomonas aeruginosa PAO1 assessed as reduction in bacterial growth by CLSI protocol based microdilution method. The data set is classed as functional.
The target of data set [21] is T1, hERG (KCNH2). Description: Inhibition of human ERG at 30 uM relative to control.
A short description of data set [22]: Oral bioavailability in human at 400 mg measured every 12 hrs. The data set is classed as ADME, organism-based. To be noted: in vivo.
Data set [23] concerns the target Voltage-gated inwardly rectifying potassium channel KCNH2 (Homo sapiens, UniProt Q12809). Description: Inhibition of human ERG up to 185 uM.
Data set [24] concerns Neisseria gonorrhoeae. Description: Antibacterial activity against Neisseria gonorrhoeae assessed as reduction in bacterial growth. It counts as functional.
A short description of data set [25]: Oral bioavailability in human at 450 mg measured every 12 hrs. It counts as ADME, organism-based. To be noted: in vivo.

Values after ≈ are worked out from the molar mass of the structure shown.

Cytochrome P450 2C9, sequence (P11712 whole entry): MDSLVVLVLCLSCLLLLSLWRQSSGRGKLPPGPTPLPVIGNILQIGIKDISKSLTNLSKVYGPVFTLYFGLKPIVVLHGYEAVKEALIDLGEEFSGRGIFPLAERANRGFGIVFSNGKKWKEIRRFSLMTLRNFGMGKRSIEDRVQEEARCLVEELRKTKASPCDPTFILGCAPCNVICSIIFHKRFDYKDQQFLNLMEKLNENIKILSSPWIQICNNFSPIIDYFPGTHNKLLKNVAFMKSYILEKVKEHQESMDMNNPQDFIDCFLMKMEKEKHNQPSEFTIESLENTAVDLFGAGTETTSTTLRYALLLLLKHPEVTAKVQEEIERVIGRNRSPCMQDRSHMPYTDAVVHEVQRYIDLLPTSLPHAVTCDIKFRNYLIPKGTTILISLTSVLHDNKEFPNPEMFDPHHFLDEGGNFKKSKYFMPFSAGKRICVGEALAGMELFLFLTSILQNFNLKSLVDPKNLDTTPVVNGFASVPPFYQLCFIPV
Voltage-gated inwardly rectifying potassium channel KCNH2, sequence (Q12809 whole entry): as the sequence (Q12809 whole entry) above

In [1], `Nc1nc(-n2cc(C(=O)O)c(=O)c3cc(F)c([C@H]4C[C@@H](O)C4)c(Cl)c32)c(F)cc1F` returned a logD of 0.3. Further, in [2], the fraction unbound stood at 0.124. Moreover, the MIC stood at 0.12 µg/mL (≈ 0.273 µM) in data set [3]; 4 µg/mL (≈ 9.1 µM) in data set [5]; 0.03 µg/mL (≈ 0.0682 µM) in data set [7]; 0.12 µg/mL (≈ 0.273 µM) in [9]; 16 µg/mL (≈ 36.4 µM) in data set [15]; 0.25 µg/mL (≈ 0.568 µM) in data set [16]. Moreover, the minimal inhibitory concentration (MIC) in data set [18] was 0.06 µg/mL (≈ 0.136 µM); in data set [20], 4 µg/mL (≈ 9.1 µM). Besides, the IC50 in data set [4] is > 50 µM; in [6], > 50 µM; in data set [13] it was > 50 µM; in data set [14] it was 24.8 µM; in data set [19], > 50 µM. In addition, in [8], the pKa stood at 4.96. In data set [10], this compound had a kinetic solubility of 44.8 µM (≈ 19.7 µg/mL). In addition, in [11], the hepatocyte CLint came to 9.2 µL/min/1e6 cells. Besides, the microsomal CLint in [12] is < 5 µL/min/mg. For the same compound, the inhibition at 100 µM in data set [17] is 15%.

As to `Nc1nc(-n2cc(C(=O)O)c(=O)c3cc(F)c([C@H]4C[C@H](O)C4)c(Cl)c32)c(F)cc1F`, the logD in data set [1] is 0.3. Moreover, the fraction unbound in [2] was 0.105. For the same compound, the MIC came out at 0.12 µg/mL (≈ 0.273 µM) in data set [3]; 8 µg/mL (≈ 18.2 µM) in data set [5]; 0.03 µg/mL (≈ 0.0682 µM) in [7]; 0.12 µg/mL (≈ 0.273 µM) in data set [9]; 64 µg/mL (≈ 146 µM) in data set [15]; 0.5 µg/mL (≈ 1.14 µM) in data set [16]. Also, the MIC in data set [18] came out at 0.01 µg/mL (≈ 0.0227 µM); in data set [20] it was 2 µg/mL (≈ 4.55 µM). The IC50 was > 50 µM in [4]; 41.7 µM in [6]; > 50 µM in data set [13]; > 50 µM in [14]; > 50 µM in data set [19]. Further, the pKa in data set [8] was determined as 5.04. The kinetic solubility in [10] stood at 59.3 µM (≈ 26.1 µg/mL). Further, the hepatocyte CLint in data set [11] was 6.8 µL/min/1e6 cells. Also, in data set [12], the microsomal CLint is < 5 µL/min/mg. Also, in data set [17], the inhibition at 100 µM was found to be 18%.

On to `Nc1nc(-n2cc(C(=O)O)c(=O)c3cc(F)c(N4CC(N)C4)c(Cl)c32)c(F)cc1F`, for which the logD in data set [1] is -0.3. For the same compound, the fraction unbound in data set [2] is 0.297. For the same compound, the MIC in data set [3] is 0.06 µg/mL (≈ 0.136 µM); in data set [5], 0.25 µg/mL (≈ 0.568 µM); in [7], 0.003 µg/mL (≈ 0.00682 µM); in [9], 0.001 µg/mL (≈ 0.00227 µM); in data set [15], 2 µg/mL (≈ 4.55 µM); in data set [16] it was 0.12 µg/mL (≈ 0.273 µM). The MIC in data set [18] is 0.007 µg/mL (≈ 0.0159 µM); in data set [20], 0.12 µg/mL (≈ 0.273 µM). Also, the IC50 in data set [4] is > 50 µM; in data set [6], 12.7 µM; in data set [13] it was > 50 µM; in data set [14] it was 13.6 µM; in data set [19], > 50 µM. Moreover, the pKa in data set [8] was found to be 5.33. This compound gave a solubility (kinetic) in data set [10] of 3.6 µM (≈ 1.58 µg/mL). Further, the hepatocyte CLint in [11] came out at 3 µL/min/1e6 cells. Also, in [12], the microsomal CLint was < 5 µL/min/mg. This compound displayed an inhibition at 30 µM in data set [21] of 6%.

In the case of `COc1c(N2C[C@@H]3CCCN[C@@H]3C2)c(F)cc2c(=O)c(C(=O)O)cn(C3CC3)c12` [MOXIFLOXACIN], the bioavailability in [22] worked out at 92%.

`Nc1nc(-n2cc(C(=O)O)c(=O)c3cc(F)c(N4CC(O)C4)c(Cl)c32)c(F)cc1F` [DELAFLOXACIN]: the logD in data set [1] was determined as 0.7. Further, in [23], the “inhibition (INH)” value is recorded as “Not Active”. This compound registered a fraction unbound in [2] of 0.149. Besides, the MIC in data set [3] is 0.03 µg/mL (≈ 0.0681 µM); in data set [5] it was 0.25 µg/mL (≈ 0.567 µM); in data set [7], 0.003 µg/mL (≈ 0.00681 µM); in data set [9], 0.01 µg/mL (≈ 0.0227 µM); in data set [24], ≥ 0.008 µg/mL; in [15], 8 µg/mL (≈ 18.2 µM). For the same compound, the values for the MIC in data set [16], in data set [18] and in [20] were 0.03 µg/mL (≈ 0.0681 µM), 0.06 µg/mL (≈ 0.136 µM) and 1 µg/mL (≈ 2.27 µM), respectively. Besides, the half-maximal inhibitory concentration (IC50) in data set [4], in data set [6], in data set [13] and in data set [19] was > 50 µM each time. The pKa in data set [8] worked out at 5.47. Besides, in data set [10], the kinetic solubility worked out at 58.1 µM (≈ 25.6 µg/mL). Besides, the MIC90 in [24] is 0.125 µg/mL (≈ 0.284 µM). The hepatocyte CLint in data set [11] was 3 µL/min/1e6 cells. Also, the microsomal CLint in [12] is < 5 µL/min/mg. The compound also registered a bioavailability in [25] of 59%. The inhibition at 100 µM in [17] came to 19%.
